Assay results as given in patent publication US20140308668A1, “Method of Determining Susceptibility of a Tumor Cell to a Chemotherapeutic Agent: Novel Use of Herpes SImplex Virus” (priority 2008, published 2014).

Columns and labels:
[1] = tested on: Hepatic tumor (Hep3B); details: cited from earlier work
[2] = tested on: Melanoma (A375); details: cited from earlier work
[3] = tested on: Ovarian tumor (ES-2); details: cited from earlier work
[4] = tested on: Breast tumor (SKBR3); details: cited from earlier work
[5] = tested on: Hepatic tumor (SNU423); details: cited from earlier work
[6] = tested on: Hepatic tumor (SNU182); details: cited from earlier work
[7] = tested on: Pancreatic tumor (181/85P); details: cited from earlier work
[8] = tested on: Gastric tumor (257P); details: cited from earlier work
[9] = tested on: MCF-7; assay: Apoptotic killing of MCF-7 breast tumor cells; format: cell-based; details: MCF-7 tumor cells
[10] = tested on: HEp-2 cells; assay: Apoptotic killing of HEp-2 tumor cells (morphological alternations and death factor processing); format: cell-based, human; details: for apoptotic killing (morphological alternations and death factor processing): doxorubicin 10 μM, etoposide 125 μM, data not shown
Excerpt: We also examined if a different type of herpes simplex virus (i.e., HSV-2) may induce apoptotic killing of tumor cells. Standard methods were used to prepare wild-type HSV-2 (i.e., wtHSV-2). (Blaho et al.: Herpes Simplex Virus: Propagation, Quantification, and Storage. Current Protocols in Microbiology. Wiley & Sons. 14:1-23, 2005). Tumor cells (human carcinoma HEp-2) were used and infected with wtHSV-2. […] In particular, wtHSV-2 caused both the morphological alternations and death factor processing (data not shown). Thus, infection of Hs578T and HEp-2 cells with wtHSV-1 and wtHSV-2, respectively, leads to substantial apoptotic killing of tumor cells.
We examined tumor cell killing by chemotherapeutic agents. In this study, HEp-2 cells were treated with varying amounts of doxorubicin and etoposide. Apoptotic killing was measured using the method detailed above. […] Thus, these tumor cells were sensitive to chemotherapeutic agents.
INFECTION OF TUMOR CELLS WITH HSV MUTANTS: Approximately 1×10^6 cells (i.e., tumor cells) were exposed to 10 plaque forming units (PFU) per ml of ΔICP27 virus in 1 ml of 5% NBCS for 1 hour at 37° C. After this adsorption step, the medium was removed and discarded. 3 ml of fresh 5 NBCS was then added. Cells were maintained at 37° C. for at least 18 hours.
MICROSCOPIC ANALYSIS OF HSV INFECTED TUMOR CELLS: The morphology of HSV infected cells was analyzed by phase contrast and fluorescence microscopy using an Olympus IX70/IX-FLA inverted fluorescence microscope. Images were acquired using a Sony DKC-5000 digital photo camera linked to a PowerMac workstation and processed through Adobe Photoshop.
For visualization of chromatin condensation in live cells, […] Hoechst 33258 (Sigma) per ml was added to the medium and allowed to incubate at 37° C. for 30 min. The percentage (%) of nuclei containing condensed chromatin was determined by dividing the number of brightly stained, small (condensed) nuclei by the total number of nuclei (uncondensed plus condensed) in a particular (640) microscopic field. At least 100 nuclei were counted for each data point. The percentage (%) of chromatin condensation is represented as the mean±SD of three independent experiments.
IMMUNOBLOT ANALYSIS OF HSV INFECTED TUMOR CELLS: Whole-cell protein extract was prepared using lysis buffer (50 mM Tris/HCl, pH 7.5, 150 mM NaCl, 1% Triton X-100,1% deoxycholate, 0.1% SDS) supplemented with 2 mM PMSF (freshly prepared stock), 1% Translysol, 0.1 mM L-1-chloro-3-(4-tosylamido)-4-phenyl-2-butanone, 0.01 mM L-1-chlor-3-(4-tosylamido)-7-amino-2-heptanon-hydrochloride. Protein concentrations were determined using a modified Bradford protein assay (Bio-Rad Laboratories). […]

[11] = tested on: Breast tumor (R193); details: cited from earlier work
[12] = tested on: Hs578T tumor cells; assay: Apoptotic killing of Hs578T tumor cells (morphological alternations by microscopy/Hoechst, death factor processing by immunoblot); format: cell-based
Experimental: We have established an in vitro cell model and examined herpes simplex virus-induced apoptotic killing of tumor cells. In the first series of studies, we used a standard inducer of apoptotic killing. A protein kinase inhibitor (i.e., staurosporine) was used. Mammary tumor cells (Hs578T) were cultured and treated with staurosporine (0.1-2 μM) for about 12-18 hours. […] (FIG. 1).
Using Hs578T cells, we next examined whether herpes simplex virus (HSV) can induce apoptotic killing in these tumor cells. Standard methods were used to prepare wild-type HSV-1 (i.e., wtHSV-1). (Blaho et al.: Herpes Simplex Virus: Propagation, Quantification, and Storage. Current Protocols in Microbiology. Wiley & Sons. 14:1-23, 2005). Hs578T cells were infected with wtHSV-1 and examined for tumor cell apoptotic killing. A range of wtHSV-1 concentration was used and we observed that one particle of wtHSV-1 was sufficient to induce apoptotic killing of a tumor cell. Apoptotic killing was evaluated at 24-hour post infection by monitoring morphological alternations and presence of death factor processing as detailed above.
INFECTION OF TUMOR CELLS WITH HSV MUTANTS: Approximately 1×10^6 cells (i.e., tumor cells) were exposed to 10 plaque forming units (PFU) per ml of ΔICP27 virus in 1 ml of 5% NBCS for 1 hour at 37° C. After this adsorption step, the medium was removed and discarded. 3 ml of fresh 5 NBCS was then added. […]
MICROSCOPIC ANALYSIS OF HSV INFECTED TUMOR CELLS: The morphology of HSV infected cells was analyzed by phase contrast and fluorescence microscopy using an Olympus IX70/IX-FLA inverted fluorescence microscope. […]
For visualization of chromatin condensation in live cells, […] Hoechst 33258 (Sigma) per ml was added to the medium and allowed to incubate at 37° C. for 30 min. The percentage (%) of nuclei containing condensed chromatin was determined by dividing the number of brightly stained, small (condensed) nuclei by the total number of nuclei (uncondensed plus condensed) in a particular (640) microscopic field. At least 100 nuclei were counted for each data point. […]

Compound | Resistant or Sensitive to Chemotherapeutic Agents [1] | Resistant or Sensitive to Chemotherapeutic Agents [2] | Resistant or Sensitive to Chemotherapeutic Agents [3] | Resistant or Sensitive to Chemotherapeutic Agents [4] | Resistant or Sensitive to Chemotherapeutic Agents [5] | Resistant or Sensitive to Chemotherapeutic Agents [6] | Resistant or Sensitive to Chemotherapeutic Agents [7] | Resistant or Sensitive to Chemotherapeutic Agents [8] | resistance of tumor cells to chemotherapeutic agent (drug-induced apoptosis) [9] | sensitivity of tumor cells to chemotherapeutic agent [10] | apoptotic killing (morphological alternations and death factor processing) [10] | Resistant or Sensitive to Chemotherapeutic Agents [11] | Death Factor Processing Poly(ADP-ribose) Polymerase, Procaspase 3, and DNA Fragmentation Factor-45 ([12]; immunoblot) | chromatin condensation (percentage of nuclei containing condensed chromatin) ([12]; staurosporine 0.1-2 μM, about 12-18 hours, mean±SD of three independent experiments) | apoptotic effects ([12]; cycloheximide alone, data not shown)
COc1cccc2c1C(=O)c1c(O)c3c(c(O)c1C2=O)C[C@@](O)(C(=O)CO)C[C@@H]3O[C@H]1C[C@H](N)[C@H](O)[C@H](C)O1 [Doxorubicin, doxorubicin] | Resistant | Resistant | Resistant | Resistant | Resistant | Resistant | Resistant | Resistant | resistant | sensitive | induce morphological alternations and death factor processing | Resistant |  |  | 
N.N.[Cl][Pt][Cl] [Cisplatin, cisplatin] | Resistant | Resistant | Resistant | Resistant | Resistant | Resistant | Resistant | Resistant |  |  |  | Resistant |  |  | 
COc1cc([C@@H]2c3cc4c(cc3[C@@H](O[C@@H]3O[C@@H]5CO[C@@H](C)O[C@H]5[C@H](O)[C@H]3O)[C@H]3COC(=O)[C@H]23)OCO4)cc(OC)c1O [Etoposide, etoposide] | Resistant | Resistant | Resistant | Resistant | Resistant | Resistant | Resistant | Resistant | resistant | sensitive | induce morphological alternations and death factor processing | Resistant |  |  | 
CC(=O)O[C@H]1C(=O)[C@@]2(C)[C@H]([C@H](OC(=O)c3ccccc3)[C@]3(O)C[C@H](OC(=O)[C@H](O)[C@@H](NC(=O)c4ccccc4)c4ccccc4)C(C)=C1C3(C)C)[C@]1(OC(C)=O)CO[C@@H]1C[C@@H]2O [Paclitaxel, paclitaxel] | Resistant | Sensitive | Resistant | Sensitive | Sensitive | Resistant | Sensitive | Sensitive |  |  |  | Sensitive |  |  | 
O=c1[nH]cc(F)c(=O)[nH]1 [5-Fluorouracil, 5-fluorouracil] | Resistant | Resistant | Sensitive | Sensitive | Resistant | Resistant | Sensitive | Resistant |  |  |  | Sensitive |  |  | 
CN[C@@H]1C[C@H]2O[C@@](C)([C@@H]1OC)n1c3ccccc3c3c4c(c5c6ccccc6n2c5c31)C(=O)NC4 [Staurosporine, staurosporine] |  |  |  |  |  |  |  |  |  |  |  |  | drastic death factor processing | 86±14% | 
C[C@@H]1C[C@@H]([C@H](O)CC2CC(=O)NC(=O)C2)C(=O)[C@@H](C)C1 [Cycloheximide, cycloheximide] |  |  |  |  |  |  |  |  |  |  |  |  |  |  | no apparent apoptotic effects
